As a reminder, the inhibition is the change of the read-out against control, counted positive when it falls.

The text below walks through data of PubChem BioAssay AID588644 (The Scripps Research Institute Molecular Screening Center, 2011).

The source made the active and inactive calls.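 The calls were made as follows: active = rise or fall in EGR1 growth-response protein of at least 30% versus solvent-only treated cells; inactive = EGR1 protein change under 30% either way.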

For the test, the target named is Early growth response protein 1 (Homo sapiens) (UniProt P18146). The experiment in a line: lowering of EGR1 protein in HCT116 – cell-based, HCT116 colorectal carcinoma, chemiluminescent western blot, counter-screen for KLF5 inhibitor project, late-stage follow-up (AID 588644). Conditions: HCT116 EGR1 protein level, 24 h, at 10 µM, stronger effect = higher value. On the technique in general: In western blotting, separated proteins are transferred to a membrane and probed.
In the case of `CN(C(=O)CNC(=O)/C=C/c1cccc(Cl)c1)C1CCS(=O)(=O)CC1`, the inhibition was -3.53% (inactive). In the case of `CN(C(=O)COC(=O)/C=C/c1cccc([N+](=O)[O-])c1)C1CCS(=O)(=O)C1` (stereo not drawn), the inhibition was 28.4% (inactive). As for `CN(C(=O)CNC(=O)/C=C/c1cccc(Cl)c1)C1CCS(=O)(=O)C1` (stereo not drawn), the figure is 18.6% (inactive).
